Measured values as given in ChEMBL document CHEMBL1126365, “Mechanism-based inactivation of mandelate racemase by propargylglycolate” (Bioorg Med Chem Lett, 1992).

Legend:
Pseudomonas putida [1] = experiment: Kinetic inactivation against mandelate racemase from Pseudomonas putida ATCC 12633
Pseudomonas putida [2] = experiment: Kinetic inactivation against mandelate racemase from Pseudomonas putida ATCC 12633 in a solution of D2O

K inact (Pseudomonas putida [1]): 0.28 min⁻¹
K inact (Pseudomonas putida [2]): 0.2 min⁻¹
Compound: O=C(O)[C@@H](O)c1ccccc1
